Test results as given in publication PMC3813431 (Aquatic toxicology (Amsterdam, Netherlands), 2013).
Entries after “also recorded” stand apart in the source; their conditions may differ. Read-outs that look alike come from different tables or passages of the source. Marks after values point to notes of the source that are not given here.

Key:
[1] = biological target: ryanodine receptor, isoform 1 (RyR1) (Oncorhynchus mykiss, UniProt A0A8C7UX14); assay type: binding, rainbow trout (Oncorhynchus mykiss); settings: for Comparison (Ratio): Fish RPF compared to Mammal RPF; for Log-Probit Slope / Bmax / Bmax (pmol/mg): Mean ± SEM; for Bmax / Bmax (pmol/mg): maximal level of [3H]Ry binding at saturation; for Fish RPF: relative potency factor, Q20 relative to PCB 95; for activity toward RyR1: rainbow trout preparation
[2] = system: RyR1; assay: Mammalian RyR1 [3H]ryanodine binding; design: species or system rabbit; settings: relative potency factor, EC2X relative to PCB 95; from literature EC2X values
[3] = system: RyR1; settings: estimated from QSAR; ref Rayne and Forest 2010; cited from earlier work
[4] = system: RyR1; settings: ref Pessah et al. 2006; cited from earlier work
[5] = linear regression of log-probit plot, (−) inactive
[6] = sigmoidal fit of enhanced [3H]Ry binding, PCB 0–20 μM, (−) inactive

ryanodine receptor, isoform 1 (RyR1), sequence (A0A8C7UX14 1-5031): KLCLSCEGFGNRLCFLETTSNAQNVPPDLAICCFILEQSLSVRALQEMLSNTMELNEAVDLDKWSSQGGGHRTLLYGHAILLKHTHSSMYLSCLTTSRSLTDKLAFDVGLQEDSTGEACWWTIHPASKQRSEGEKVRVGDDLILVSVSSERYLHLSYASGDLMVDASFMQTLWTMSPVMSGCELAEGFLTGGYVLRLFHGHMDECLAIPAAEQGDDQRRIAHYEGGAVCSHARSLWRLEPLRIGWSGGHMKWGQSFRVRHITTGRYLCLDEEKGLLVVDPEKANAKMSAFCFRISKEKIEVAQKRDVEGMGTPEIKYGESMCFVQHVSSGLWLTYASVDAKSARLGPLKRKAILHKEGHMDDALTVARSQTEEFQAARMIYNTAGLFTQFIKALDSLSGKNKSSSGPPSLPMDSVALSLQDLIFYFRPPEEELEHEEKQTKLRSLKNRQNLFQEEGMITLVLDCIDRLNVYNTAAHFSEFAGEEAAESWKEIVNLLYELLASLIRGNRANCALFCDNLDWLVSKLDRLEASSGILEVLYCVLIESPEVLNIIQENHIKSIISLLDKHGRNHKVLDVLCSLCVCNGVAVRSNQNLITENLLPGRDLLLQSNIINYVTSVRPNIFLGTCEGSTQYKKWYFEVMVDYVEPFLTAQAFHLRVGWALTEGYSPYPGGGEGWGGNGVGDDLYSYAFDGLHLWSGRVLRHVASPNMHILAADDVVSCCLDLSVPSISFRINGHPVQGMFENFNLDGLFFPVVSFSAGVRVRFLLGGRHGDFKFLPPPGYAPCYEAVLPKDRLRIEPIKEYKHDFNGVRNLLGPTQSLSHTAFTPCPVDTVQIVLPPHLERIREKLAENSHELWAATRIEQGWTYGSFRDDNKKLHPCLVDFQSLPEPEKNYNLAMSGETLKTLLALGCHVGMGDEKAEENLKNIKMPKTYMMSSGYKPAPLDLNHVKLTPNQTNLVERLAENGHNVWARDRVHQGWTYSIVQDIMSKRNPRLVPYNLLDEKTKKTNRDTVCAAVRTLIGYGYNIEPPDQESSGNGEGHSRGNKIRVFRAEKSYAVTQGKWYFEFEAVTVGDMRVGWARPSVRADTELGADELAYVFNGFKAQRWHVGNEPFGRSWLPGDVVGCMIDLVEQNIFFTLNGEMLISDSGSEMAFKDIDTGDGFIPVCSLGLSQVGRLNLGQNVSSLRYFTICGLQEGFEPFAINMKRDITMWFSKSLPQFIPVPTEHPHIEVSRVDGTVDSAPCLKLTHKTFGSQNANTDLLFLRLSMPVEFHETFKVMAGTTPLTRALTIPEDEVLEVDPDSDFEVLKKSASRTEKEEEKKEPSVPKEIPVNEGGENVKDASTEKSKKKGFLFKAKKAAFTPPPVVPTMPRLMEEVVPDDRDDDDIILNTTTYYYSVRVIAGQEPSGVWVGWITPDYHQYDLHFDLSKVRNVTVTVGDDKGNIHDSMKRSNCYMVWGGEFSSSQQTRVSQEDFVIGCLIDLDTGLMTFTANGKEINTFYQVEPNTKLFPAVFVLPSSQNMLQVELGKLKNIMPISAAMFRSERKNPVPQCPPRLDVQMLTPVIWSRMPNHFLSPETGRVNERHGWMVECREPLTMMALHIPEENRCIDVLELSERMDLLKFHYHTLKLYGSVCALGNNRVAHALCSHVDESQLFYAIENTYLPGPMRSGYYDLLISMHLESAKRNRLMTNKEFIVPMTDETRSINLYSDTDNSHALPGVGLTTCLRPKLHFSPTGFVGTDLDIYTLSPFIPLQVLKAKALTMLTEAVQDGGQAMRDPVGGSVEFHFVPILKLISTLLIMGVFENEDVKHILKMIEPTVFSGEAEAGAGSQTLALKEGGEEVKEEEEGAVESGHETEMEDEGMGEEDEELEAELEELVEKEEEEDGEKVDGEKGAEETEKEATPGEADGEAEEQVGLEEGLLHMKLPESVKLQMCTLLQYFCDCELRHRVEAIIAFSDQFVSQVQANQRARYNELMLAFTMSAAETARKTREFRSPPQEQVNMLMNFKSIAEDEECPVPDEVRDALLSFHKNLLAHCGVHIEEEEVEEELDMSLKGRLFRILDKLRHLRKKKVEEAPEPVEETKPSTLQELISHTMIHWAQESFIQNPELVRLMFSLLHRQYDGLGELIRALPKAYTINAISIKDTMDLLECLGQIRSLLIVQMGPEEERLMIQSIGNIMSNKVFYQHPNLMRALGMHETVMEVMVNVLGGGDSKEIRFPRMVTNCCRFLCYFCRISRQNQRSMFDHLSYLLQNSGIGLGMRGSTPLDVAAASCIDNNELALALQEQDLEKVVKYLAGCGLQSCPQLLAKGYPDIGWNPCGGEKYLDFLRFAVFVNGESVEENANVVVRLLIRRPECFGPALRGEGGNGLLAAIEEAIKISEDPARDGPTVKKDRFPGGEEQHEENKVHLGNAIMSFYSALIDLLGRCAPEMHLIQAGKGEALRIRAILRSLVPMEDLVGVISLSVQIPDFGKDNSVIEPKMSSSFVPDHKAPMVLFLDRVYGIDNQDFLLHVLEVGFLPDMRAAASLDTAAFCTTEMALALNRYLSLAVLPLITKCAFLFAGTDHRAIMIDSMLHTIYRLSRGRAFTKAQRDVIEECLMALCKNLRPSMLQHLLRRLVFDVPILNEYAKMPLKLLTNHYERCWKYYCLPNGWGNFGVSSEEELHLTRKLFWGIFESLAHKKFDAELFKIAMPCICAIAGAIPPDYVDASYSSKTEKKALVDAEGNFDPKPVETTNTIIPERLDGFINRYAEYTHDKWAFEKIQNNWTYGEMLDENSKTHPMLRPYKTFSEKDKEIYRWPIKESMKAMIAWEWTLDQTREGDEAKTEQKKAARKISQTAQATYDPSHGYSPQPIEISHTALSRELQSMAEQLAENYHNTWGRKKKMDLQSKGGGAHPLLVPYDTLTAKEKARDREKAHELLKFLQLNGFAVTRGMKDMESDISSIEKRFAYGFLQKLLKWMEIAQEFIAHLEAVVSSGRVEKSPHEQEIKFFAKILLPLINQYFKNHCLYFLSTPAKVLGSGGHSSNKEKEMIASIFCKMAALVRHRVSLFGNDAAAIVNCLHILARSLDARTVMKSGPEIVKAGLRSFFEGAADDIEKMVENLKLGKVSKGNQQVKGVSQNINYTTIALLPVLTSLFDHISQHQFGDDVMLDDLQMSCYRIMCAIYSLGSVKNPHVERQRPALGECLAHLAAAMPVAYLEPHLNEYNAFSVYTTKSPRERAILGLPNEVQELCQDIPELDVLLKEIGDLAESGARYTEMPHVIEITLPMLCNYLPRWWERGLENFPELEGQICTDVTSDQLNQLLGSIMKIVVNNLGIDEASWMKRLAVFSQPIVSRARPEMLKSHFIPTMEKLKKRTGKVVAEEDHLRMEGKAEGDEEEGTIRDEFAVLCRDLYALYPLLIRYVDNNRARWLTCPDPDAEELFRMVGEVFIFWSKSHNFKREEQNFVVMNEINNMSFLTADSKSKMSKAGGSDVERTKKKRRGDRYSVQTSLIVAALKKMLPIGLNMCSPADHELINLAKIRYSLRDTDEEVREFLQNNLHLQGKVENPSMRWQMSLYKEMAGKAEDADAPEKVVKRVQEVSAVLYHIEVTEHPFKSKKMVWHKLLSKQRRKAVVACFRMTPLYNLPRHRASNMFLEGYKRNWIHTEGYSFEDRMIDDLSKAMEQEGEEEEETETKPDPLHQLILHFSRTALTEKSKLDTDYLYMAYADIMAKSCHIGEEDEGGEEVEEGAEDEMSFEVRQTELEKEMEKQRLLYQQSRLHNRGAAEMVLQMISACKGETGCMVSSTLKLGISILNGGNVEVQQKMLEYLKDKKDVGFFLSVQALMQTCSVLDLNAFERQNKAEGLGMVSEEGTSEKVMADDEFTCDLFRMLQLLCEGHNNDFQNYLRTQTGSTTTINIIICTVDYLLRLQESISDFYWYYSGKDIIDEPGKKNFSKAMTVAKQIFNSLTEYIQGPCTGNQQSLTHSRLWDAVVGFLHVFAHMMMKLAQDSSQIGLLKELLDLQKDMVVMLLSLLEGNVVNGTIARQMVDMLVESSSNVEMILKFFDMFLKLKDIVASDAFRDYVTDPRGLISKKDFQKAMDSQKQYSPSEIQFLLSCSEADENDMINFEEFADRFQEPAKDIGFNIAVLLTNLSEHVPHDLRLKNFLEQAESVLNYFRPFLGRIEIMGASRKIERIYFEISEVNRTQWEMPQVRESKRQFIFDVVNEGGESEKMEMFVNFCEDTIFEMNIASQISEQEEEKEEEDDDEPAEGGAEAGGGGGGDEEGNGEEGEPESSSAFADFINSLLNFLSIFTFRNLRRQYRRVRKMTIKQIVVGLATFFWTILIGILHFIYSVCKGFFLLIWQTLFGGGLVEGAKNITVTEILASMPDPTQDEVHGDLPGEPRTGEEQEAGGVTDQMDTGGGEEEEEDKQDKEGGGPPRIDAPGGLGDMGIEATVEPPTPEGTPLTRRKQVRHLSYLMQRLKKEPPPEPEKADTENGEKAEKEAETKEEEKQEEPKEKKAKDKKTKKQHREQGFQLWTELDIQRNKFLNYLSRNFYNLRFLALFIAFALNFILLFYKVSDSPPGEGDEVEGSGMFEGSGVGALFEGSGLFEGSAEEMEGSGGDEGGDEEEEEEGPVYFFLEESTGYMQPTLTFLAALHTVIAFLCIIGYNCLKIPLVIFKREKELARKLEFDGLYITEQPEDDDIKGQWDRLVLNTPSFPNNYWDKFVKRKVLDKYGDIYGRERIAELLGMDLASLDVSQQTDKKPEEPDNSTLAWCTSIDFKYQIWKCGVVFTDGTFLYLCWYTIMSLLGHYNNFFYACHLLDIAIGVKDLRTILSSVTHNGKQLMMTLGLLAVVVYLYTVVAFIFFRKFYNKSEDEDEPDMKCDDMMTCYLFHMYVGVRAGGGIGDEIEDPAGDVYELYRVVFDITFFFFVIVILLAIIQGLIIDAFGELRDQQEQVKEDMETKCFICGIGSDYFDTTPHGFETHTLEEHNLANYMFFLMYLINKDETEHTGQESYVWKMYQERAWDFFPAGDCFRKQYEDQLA

Row | Structure (SMILES) | EC50 ([1]; single compound) | Mammal RPF [2] | Comparison (Ratio) [1] | Log-Probit Slope [1, 5] | Bmax ([1]; (−) inactive) | Fish RPF ([1]; (−) inactive) | EC50 [1, 6] | Mammal EC2X (μM) [3] | Bmax (pmol/mg) ([1]; (−) inactive) | activity toward RyR1 [1] | Mammal EC2X [4] | activity toward the RyR1 in mammals [4] | receptor activity, % of baseline ([1]; at 20 μM (data not shown)) | Log-Probit Slope ([1]; parameter determined using activating concentrations only) | EC20 ([1]; read-out: Fish Normalized Q20 (μM)) | Emax ([1]; read-out: Maximum Response (% of Control))
1 | Brc1ccc(Oc2cc(Br)ccc2Br)c(Br)c1 [PBDE49] | 3.48 µM |  |  |  |  |  |  |  |  |  |  |  |  |  |  | 
2 | Clc1cccc(-c2cccc(Cl)c2Cl)c1 [PCB 20] |  | 0.11 | 0.05 | 2.83 ± 0.10 | 0.34 ± 0.02 pmol/mg | 0.01 | 1.8 µM | 2 ^c μM |  |  |  |  |  |  |  | 
3 | Clc1ccc(-c2ccc(Cl)cc2Cl)cc1 [PCB 28] |  | 0.04 |  |  |  |  | > 20 µM | 5 ^c μM | - | inactive |  |  |  |  |  | 
4 | Clc1ccc(Cl)c(-c2cccc(Cl)c2Cl)c1 [PCB 44] |  | 0.28 | 0.29 | 4.20 ± 0.10 | 0.50 ± 0.03 pmol/mg | 0.08 | 4.5 µM | 0.8 ^c μM |  |  |  |  |  |  |  | 
5 | Clc1ccc(Cl)c(-c2cc(Cl)ccc2Cl)c1 [PCB 52] |  | 0.45 | 0.69 | 2.66 ± 0.09 | 0.77 ± 0.05 pmol/mg | 0.31 | 2.94 µM |  |  |  | 0.49 µM |  |  |  |  | 
6 | Clc1ccc(-c2ccc(Cl)c(Cl)c2)c(Cl)c1 [PCB 66] |  | 0.09 | 0.44 | 2.93 ± 0.00 | 0.42 ± 0.02 pmol/mg | 0.04 | 1.16 µM |  |  |  | 2.38 µM |  |  |  |  | 
7 | Clc1ccc(-c2ccc(Cl)c(Cl)c2)cc1Cl [PCB 77] |  | 0.04 |  |  |  |  | > 20 µM |  | - | negligible impact; also recorded: inactive | 5.00 µM |  |  |  |  | 
8 | Clc1ccc(Cl)c(-c2c(Cl)ccc(Cl)c2Cl)c1 [PCB 95] |  | 1.00 | 1.00 | 2.15 ± 0.05 | 0.95 ± 0.04 pmol/mg | 1.00 | 1.06 µM |  |  |  | 0.22 µM |  |  |  |  | 
9 | Clc1ccc(-c2cc(Cl)c(Cl)cc2Cl)c(Cl)c1 [PCB 99] |  | 0.08 | 0.35 | 2.30 ± 0.05 | 0.61 ± 0.03 pmol/mg | 0.03 | 3.59 µM |  |  |  | 2.80 µM |  |  |  |  | 
10 | Clc1ccc(Cl)c(-c2cc(Cl)c(Cl)cc2Cl)c1 [PCB 101] |  | 0.26 | 1.64 | 1.83 ± 0.04 | 0.64 ± 0.04 pmol/mg | 0.42 | 1.98 µM |  |  |  | 0.86 µM |  |  |  |  | 
11 | Clc1ccc(-c2c(Cl)ccc(Cl)c2Cl)cc1Cl [PCB 110] |  | 0.19 |  | 2.60 ± 0.01 | 0.48 ± 0.03 pmol/mg |  | 1.08 µM |  |  |  | 1.13 µM |  |  |  |  | 
12 | Clc1ccc(-c2cc(Cl)c(Cl)c(Cl)c2)cc1Cl [PCB 126] |  |  |  |  |  |  |  |  |  |  |  | inactive |  |  |  | 
13 | Clc1ccc(-c2c(Cl)ccc(Cl)c2Cl)c(Cl)c1Cl [PCB 132] |  | 0.24 | 0.10 |  | 0.46 ± 0.02 pmol/mg | 0.02 | 1.32 µM |  |  |  | 0.91 µM |  | 88 % of baseline | 1.70 ± 0.04 ^a |  | 
14 | Clc1ccc(Cl)c(-c2c(Cl)ccc(Cl)c2Cl)c1Cl [PCB 136] |  | 0.96 | 0.63 | 3.16 ± 0.14 | 0.96 ± 0.04 pmol/mg | 0.60 | 1.3 µM |  |  |  | 0.23 µM |  |  |  |  | 
15 | Clc1cc(Cl)c(-c2c(Cl)ccc(Cl)c2Cl)cc1Cl [PCB 149] |  | 0.67 | 1.45 | 3.40 ± 0.08 | 0.76 ± 0.04 pmol/mg | 0.96 | 0.81 µM |  |  |  | 0.33 µM |  |  |  |  | 
16 | Clc1ccc(Cl)c(-c2c(Cl)c(Cl)cc(Cl)c2Cl)c1 [PCB 151] |  | 0.44 | 0.45 | 1.91 ± 0.04 | 0.77 ± 0.04 pmol/mg | 0.20 | 2.76 µM |  |  |  | 0.50 µM |  |  |  |  | 
17 | Clc1cc(Cl)c(-c2cc(Cl)c(Cl)cc2Cl)cc1Cl [PCB 153] |  | 0.18 | 0.41 | 2.25 ± 0.05 | 0.54 ± 0.02 pmol/mg | 0.07 | 5.75 µM |  |  |  | 1.21 µM |  |  |  |  | 
18 | Clc1ccc(-c2cc(Cl)c(Cl)c(Cl)c2Cl)c(Cl)c1Cl [PCB 170] |  | 0.30 |  |  |  |  | > 20 µM |  | - | inactive | 0.73 µM |  |  |  |  | 
19 | Clc1cc(Cl)c(-c2cc(Cl)c(Cl)c(Cl)c2Cl)cc1Cl [PCB 180] |  | 0.23 | 0.17 | 1.84 ± 0.06 | 0.40 ± 0.03 pmol/mg |  |  |  |  |  | 0.96 µM |  |  |  | 11.2 µM | 132 ± 9.87%
20 | Clc1cc(Cl)c(-c2c(Cl)cc(Cl)c(Cl)c2Cl)cc1Cl [PCB 183] |  | 0.40 | 0.16 | 1.58 ± 0.09 | 0.42 ± 0.03 pmol/mg | 0.06 | 1.82 µM |  |  |  | 0.55 µM |  |  |  |  | 
21 | Clc1cc(Cl)c(-c2c(Cl)c(Cl)cc(Cl)c2Cl)cc1Cl [PCB 187] |  | 0.38 | 0.16 | 3.05 ± 0.07 | 0.45 ± 0.02 pmol/mg | 0.06 | 1.3 µM |  |  |  | 0.58 µM |  |  |  |  | 
22 | Clc1cc(-c2cc(Cl)c(Cl)c(Cl)c2Cl)c(Cl)c(Cl)c1Cl [PCB 194] |  | 0.44 | 0.09 | 8.94 ± 0.34 | 0.36 ± 0.02 pmol/mg | 0.04 | 1.27 µM | 0.5 ^c μM |  |  |  |  |  |  |  | 
